Laboratory results published in ChEMBL document CHEMBL1143404, “New plasmid-mediated fluoroquinolone efflux pump, QepA, found in an Escherichia coli clinical isolate” (2007).
Values after ≈ are worked out from the molar mass of the structure shown. Active and inactive are the calls of the source. No cut-off for these calls is given here.

Columns and labels:
[1] = system: Escherichia coli; assay: Antimicrobial activity against Escherichia coli KAM32 pSTV28 containing chloramphenicol-resistant vector by agar dilution method; assay type: functional
[2] = system: Escherichia coli; assay: Antimicrobial activity against multidrug-resistant Escherichia coli C316 pHPA containing mutated GyrA gene by agar dilution method; assay type: functional
[3] = system: Escherichia coli; assay: Antimicrobial activity against Escherichia coli KAM32 pSTVdeltaqepA containing disrupted qepA gene by agar dilution method; assay type: functional
[4] = system: Escherichia coli; assay: Antimicrobial activity against Escherichia coli KAM32 pHPA containing mutated GyrA gene by agar dilution method; assay type: functional
[5] = system: Escherichia coli; assay: Ratio of MIC for Escherichia coli KAM32 pSTVqepA mutant to MIC for Escherichia coli KAM32 pSTV28 mutant; assay type: functional
[6] = system: Escherichia coli; assay: Antimicrobial activity against Escherichia coli KAM32 pSTVqepA containing qepA gene ligated to pSTV28 plasmid by agar dilution method; assay type: functional
[7] = system: Escherichia coli; assay: Antimicrobial activity against Escherichia coli KAM32 expressing deltaacrB ydhE hsd gene by agar dilution method; assay type: functional
[8] = molecular target: T1, Plasmid efflux fluoroquinolone (Escherichia coli) (UniProt A5H8A5); assay: Inhibition of qepA-mediated drug efflux in Escherichia coli KAM32 assessed as increase in accumulation of Norfloxacin by fluorescence spectroscopy
T1 sequence (whole entry): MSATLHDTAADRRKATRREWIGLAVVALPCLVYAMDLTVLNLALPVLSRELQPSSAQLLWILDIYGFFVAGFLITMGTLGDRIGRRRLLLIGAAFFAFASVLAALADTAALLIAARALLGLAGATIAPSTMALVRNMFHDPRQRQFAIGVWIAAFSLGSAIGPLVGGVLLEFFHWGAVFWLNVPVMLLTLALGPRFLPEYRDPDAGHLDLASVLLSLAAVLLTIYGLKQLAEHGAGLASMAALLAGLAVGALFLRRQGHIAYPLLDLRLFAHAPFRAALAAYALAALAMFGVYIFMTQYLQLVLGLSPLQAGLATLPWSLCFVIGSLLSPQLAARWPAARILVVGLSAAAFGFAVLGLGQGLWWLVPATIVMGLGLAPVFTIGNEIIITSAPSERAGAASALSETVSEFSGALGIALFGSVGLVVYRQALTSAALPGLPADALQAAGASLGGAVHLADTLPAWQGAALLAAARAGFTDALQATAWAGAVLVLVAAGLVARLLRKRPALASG

Row | Structure (SMILES) | MIC [1] [µg/mL] | MIC [2] [µg/mL] | MIC [3] [µg/mL] | MIC [4] [µg/mL] | Ratio [5] | MIC [6] [µg/mL] | MIC [7] [µg/mL] | Activity [8]
1 | C[C@H]1COc2c(N3CCN(C)CC3)c(F)cc3c(=O)c(C(=O)O)cn1c23.C[C@H]1COc2c(N3CCN(C)CC3)c(F)cc3c(=O)c(C(=O)O)cn1c23.O [LEVOFLOXACIN] | 0.004 | 32 | 0.004 |  |  |  |  | 
2 | CC1(C)S[C@@H]2[C@H](NC(=O)[C@H](N)c3ccccc3)C(=O)N2[C@H]1C(=O)O [AMPICILLIN] |  | > 128 |  | > 128 |  |  |  | 
3 | CC[n+]1c(-c2ccccc2)c2cc(N)ccc2c2ccc(N)cc21.[Br-] [HOMIDIUM BROMIDE] | 4 | > 128 | 4 | 8 | 2 | 8 | 4 | 
4 | O=C(O)c1cn(C2CC2)c2cc(N3CCNCC3)c(F)cc2c1=O [CIPROFLOXACIN] |  | > 128 |  | 0.064 (≈ 0.193 µM) |  |  |  | 
5 | NC[C@H]1O[C@H](O[C@H]2[C@H](O)[C@@H](O[C@H]3O[C@H](CO)[C@@H](O)[C@H](N)[C@H]3O)[C@H](N)C[C@@H]2N)[C@H](O)[C@@H](O)[C@@H]1O [KANAMYCIN] | 1 (≈ 2.06 µM) | > 128 | 128 (≈ 264 µM) | > 128 | 1 | 1 (≈ 2.06 µM) | 1 (≈ 2.06 µM) | 
6 | CN(C)c1ccc(C(=C2C=CC(=[N+](C)C)C=C2)c2ccc(N(C)C)cc2)cc1.[Cl-] [GENTIAN VIOLET] | 2 | 16 | 2 | 2 | 1 | 2 | 2 | 
7 | CCN1CCN(c2cc3c(cc2F)c(=O)c(C(=O)O)cn3C2CC2)CC1 [ENROFLOXACIN] | 0.008 (≈ 0.0223 µM) | > 128 | 0.008 (≈ 0.0223 µM) | 0.25 (≈ 0.696 µM) | 32 | 0.25 (≈ 0.696 µM) | 0.008 (≈ 0.0223 µM) | 
8 | CCn1cc(C(=O)O)c(=O)c2cc(F)c(N3CCNCC3)cc21 [NORFLOXACIN] | 0.016 (≈ 0.0501 µM) | > 128 | 0.016 (≈ 0.0501 µM) | 0.25 (≈ 0.783 µM) | 64 | 1 (≈ 3.13 µM) | 0.016 (≈ 0.0501 µM) | 
9 | COc1c(N2CCNC(C)C2)c(F)cc2c(=O)c(C(=O)O)cn(C3CC3)c12 (stereo not given) [GATIFLOXACIN] | 0.002 (≈ 0.00533 µM) | 32 (≈ 85.2 µM) | 0.004 (≈ 0.0107 µM) | 0.016 (≈ 0.0426 µM) | 8 | 0.016 (≈ 0.0426 µM) | 0.004 (≈ 0.0107 µM) | 
10 | CC/N=c1\cc2oc3cc(NCC)c(C)cc3c(-c3ccccc3C(=O)OCC)c-2cc1C.Cl [RHODAMINE 6G HYDROCHLORIDE] | 4 | > 128 | 4 | 4 | 1 | 4 | 4 | 
11 | C[C@H]1COc2c(C3(N)CC3)c(F)cc3c(=O)c(C(=O)O)cn1c23 [PAZUFLOXACIN] | 0.004 (≈ 0.0126 µM) | 16 (≈ 50.3 µM) | 0.004 (≈ 0.0126 µM) | 0.016 (≈ 0.0503 µM) | 4 | 0.016 (≈ 0.0503 µM) | 0.004 (≈ 0.0126 µM) | 
12 | C[C@@H]1CN(c2c(F)c(N)c3c(=O)c(C(=O)O)cn(C4CC4)c3c2F)C[C@H](C)N1 [SPARFLOXACIN] | 0.001 (≈ 0.00255 µM) | 16 (≈ 40.8 µM) | 0.001 (≈ 0.00255 µM) | 0.002 (≈ 0.0051 µM) | 2 | 0.002 (≈ 0.0051 µM) | 0.001 (≈ 0.00255 µM) | 
13 | CN(C)[C@@H]1C(O)=C(C(N)=O)C(=O)[C@@]2(O)C(O)=C3C(=O)c4c(O)cccc4[C@@](C)(O)[C@H]3C[C@@H]12 [TETRACYCLINE] | 0.25 (≈ 0.563 µM) | > 128 | 0.125 (≈ 0.281 µM) | 0.25 (≈ 0.563 µM) | 1 | 0.25 (≈ 0.563 µM) | 0.25 (≈ 0.563 µM) | 
14 | CCCCCCCCCCCCOS(=O)(=O)[O-].[Na+] [SODIUM LAURYL SULFATE] | 128 |  | > 128 | 128 | 1 | 128 | 128 | 
15 | CCn1cc(C(=O)O)c(=O)c2cc(F)c(N3CCNC(C)C3)c(F)c21 (stereo not given) [LOMEFLOXACIN] | 0.032 (≈ 0.0911 µM) | > 128 | 0.032 (≈ 0.0911 µM) | 0.064 (≈ 0.182 µM) | 2 | 0.064 (≈ 0.182 µM) | 0.032 (≈ 0.0911 µM) | 
16 | CC[C@H]1OC(=O)[C@H](C)[C@@H](O[C@H]2C[C@@](C)(OC)[C@@H](O)[C@H](C)O2)[C@H](C)[C@@H](O[C@@H]2O[C@H](C)C[C@H](N(C)C)[C@H]2O)[C@](C)(O)C[C@@H](C)C(=O)[C@H](C)[C@@H](O)[C@]1(C)O [ERYTHROMYCIN] | 1 (≈ 1.36 µM) | > 128 | 1 (≈ 1.36 µM) | > 128 | 2 | 2 (≈ 2.73 µM) | 2 (≈ 2.73 µM) | 
17 | NC1CCN(c2nc3c(cc2F)c(=O)c(C(=O)O)cn3-c2ccc(F)cc2F)C1 (stereo not given) [TOSUFLOXACIN] | 0.002 (≈ 0.00495 µM) | > 128 | 0.002 (≈ 0.00495 µM) | 0.032 (≈ 0.0791 µM) | 16 | 0.032 (≈ 0.0791 µM) | 0.002 (≈ 0.00495 µM) | 
18 | C[C@H](CCC(=O)O)[C@H]1CC[C@H]2[C@@H]3CC[C@@H]4C[C@H](O)CC[C@]4(C)[C@H]3C[C@H](O)[C@]12C [DEOXYCHOLIC ACID] | 512 (≈ 1300 µM) | > 1020 | 512 (≈ 1300 µM) | 512 (≈ 1300 µM) | 1 | 512 (≈ 1300 µM) | 1020 (≈ 2610 µM) | 
19 | COc1c(N2C[C@@H]3CCCN[C@@H]3C2)c(F)cc2c(=O)c(C(=O)O)cn(C3CC3)c12 [MOXIFLOXACIN] | 0.002 (≈ 0.00498 µM) | 32 (≈ 79.7 µM) | 0.002 (≈ 0.00498 µM) | 0.016 (≈ 0.0399 µM) | 8 | 0.016 (≈ 0.0399 µM) | 0.002 (≈ 0.00498 µM) | 
20 | C[n+]1c2cc(N)ccc2cc2ccc(N)cc21.[Cl-] [EUFLAVINE] | 2 | > 128 | 2 | 4 | 2 | 4 | 2 | 
21 | CCn1cc(C(=O)O)c(=O)c2ccc(C)nc21 [NALIDIXIC ACID] | 1 (≈ 4.31 µM) | > 128 | 1 (≈ 4.31 µM) | 1 (≈ 4.31 µM) | 2 | 2 (≈ 8.61 µM) | 1 (≈ 4.31 µM) | 
22 | N#CC(C#N)=NNc1cccc(Cl)c1 [CARBONYL CYANIDE M-CHLOROPHENYLHYDRAZONE] | 16 (≈ 78.2 µM) | 16 (≈ 78.2 µM) | 16 (≈ 78.2 µM) | 16 (≈ 78.2 µM) | 1 | 16 (≈ 78.2 µM) | 16 (≈ 78.2 µM) | Active
